Assay results from PubChem BioAssay (NCI).
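How tested: cells in 96-well plates exposed to compound for 48 hours at five concentrations. The concentration for 50% growth inhibition is given as GI50. TGI: concentration producing complete growth inhibition.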

Assays:
Experiment in all cases: NCI tumour cell line growth inhibition, 48 h
M19-MEL melanoma = system: M19-MEL melanoma
P388 leukemia = system: P388 leukemia
P388/ADR leukemia = system: P388/ADR leukemia
SN12K1 renal = system: SN12K1 renal
RXF-631 renal = system: RXF-631 renal

Structure (SMILES)	TGI (M19-MEL melanoma) [µM]	TGI (P388 leukemia) [µM]	TGI (P388/ADR leukemia) [µM]	TGI (SN12K1 renal) [µM]	GI50 (M19-MEL melanoma) [µM]	TGI (RXF-631 renal) [µM]
C=CCCCCCCCCC(=O)O	449	379	264	209	–	–
COc1cccc2c1C(=O)c1c(O)c3c(c(O)c1C2=O)C[C@@](O)(C(=O)CO)CC3OC1CC(NCCCC(OC(C)=O)OC(C)=O)C(O)C(C)O1 (some centres not stated)	0.000323	–	–	–	< 0.0001	0.000897
